The target in this test is T1, hITK enzyme (FLAG-tagged full-length hITK) (Homo sapiens, UniProt Q08881).
T1 construct: strongly expressing FLAG-tagged full-length hITK in Sf9 cells; FLAG; made in house; host or cells: Sf9 insect cells (ITK); Escherichia coli (GST-SLP76 substrate)
T1 sequence (Q08881 1-620): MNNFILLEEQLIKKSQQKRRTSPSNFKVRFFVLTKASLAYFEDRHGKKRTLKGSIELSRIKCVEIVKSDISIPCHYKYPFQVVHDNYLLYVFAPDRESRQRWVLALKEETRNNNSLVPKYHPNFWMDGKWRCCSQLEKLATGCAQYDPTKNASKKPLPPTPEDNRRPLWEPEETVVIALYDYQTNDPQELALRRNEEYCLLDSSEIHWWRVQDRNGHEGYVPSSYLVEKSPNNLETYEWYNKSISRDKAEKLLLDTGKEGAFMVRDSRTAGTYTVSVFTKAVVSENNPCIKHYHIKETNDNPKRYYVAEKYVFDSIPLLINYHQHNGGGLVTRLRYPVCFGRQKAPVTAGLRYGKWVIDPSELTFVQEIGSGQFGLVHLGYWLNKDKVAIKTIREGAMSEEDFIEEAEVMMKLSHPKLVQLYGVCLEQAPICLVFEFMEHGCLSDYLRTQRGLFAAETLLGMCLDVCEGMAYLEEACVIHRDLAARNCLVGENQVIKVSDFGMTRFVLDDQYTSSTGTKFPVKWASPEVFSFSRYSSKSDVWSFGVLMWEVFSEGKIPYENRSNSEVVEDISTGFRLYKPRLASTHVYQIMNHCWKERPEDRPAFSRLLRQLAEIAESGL
Description: ITK inhibitory activity (HTRF kinase assay, biotinylated GST-SLP76 substrate). The test is classed as biochemical. The note with it: IC50 calculated from the 2 test compound concentrations sandwiching 50% ITK inhibitory rate. The procedure:
(1) Preparation of hITK Enzyme
hITK enzyme was prepared by strongly expressing FLAG-tagged full-length hITK in Sf9 cells, and purifying same by anti-FLAG antibody column.
(2) Preparation of biotinylated GST-SLP76
Biotinylated GST-SLP76 was prepared by strongly expressing GST-tagged SLP76 (aa95-175) in Escherichia coli, purifying same by glutathion sepharose column and biotinylating same.
(3) Preparation of Solution
(i) buffer for dilution: 20 mmol/L 3-(N-morpholino)propanesulfonic acid (pH 7.0) (DOJINDO LABORATORIES), 10 mmol/L magnesium chloride (Sigma-Aldrich Corporation), 1 mmol/L dithiothreitol (Nacalai Tesque, Inc.), 0.1% gelatin (Sigma-Aldrich Corporation)
(ii) substrate solution: 0.2 μg/mL biotinylated GST-SLP76, 100 μmol/L ATP (Sigma-Aldrich Corporation), prepared with buffer for dilution
(iii) test compound solution: test compound, 50% dimethyl sulfoxide (DMSO), prepared with buffer for dilution
(iv) enzyme solution: 50 ng/mL hITK enzyme, prepared with buffer for dilution
(v) control solution: solution after removal of test compound from the mixture of the above-mentioned (i), (ii) and (iii)
(vi) blank solution: solution after removal of ATP from the mixture of the above-mentioned (i), (ii) and (iii)
(vii) detection buffer: 0.1 μg/mL Anti-Phosphotyrosine (PT66)-Cryptate (Cisbio), 2.5 μg/mL streptavidin-binding XL665 (Cisbio), 50 mmol/L 4-(2-hydroxyethyl)-1-piperazineethanesulfonic acid (pH 7.4) (Nacalai Tesque, Inc.), 30 mmol/L EDTA (NipponGene), 0.1% TritonX (Sigma-Aldrich Corporation), 200 mmol/L potassium fluoride (Wako Pure Chemical Industries, Ltd.), 0.05% bovine serum albumin (Sigma-Aldrich Corporation) (4) Measurement of ITK Inhibitory Activity
A substrate solution (25 μL/well), a test compound solution (5 μL/well) and an enzyme solution (20 μL/well) were added into 96 well half-area white plate (plate, Corning Incorporated 3642) to start a kinase reaction. The plate was stood still at room temperature for 10 min. Then, a detection buffer (50 μL/well) was added to the plate. After 2 hr from the addition of the detection buffer, fluorescence intensity at 620 nm (excited at 337 nm), and fluorescence intensity at 665 nm ([…]) were measured by a fluorescence microplate reader.
The Ratio (fluorescence intensity at 665 nm/fluorescence intensity at 620 nm×10000) of each test compound was calculated from the measured fluorescence intensity. Simultaneously, the measurement was performed using a blank solution and a control solution, and % of control value of each test compound was calculated from the following formula. % of control=(Ratio of test compound−Ratio of blank)/(Ratio of control−Ratio of blank)×100 ITK inhibitory rate (%)=100−(% of control)
The IC50 value was calculated from the test compound concentrations at 2 points sandwiching 50% ITK inhibitory rate.
In the test for the compounds of Examples 380 and 381, the ATP concentration of the substrate solutions was 6 μmol/L.
The IC50 is the concentration that gives 50% inhibition. Take `COC(C)(C)C(=O)N(C)c1ccc2cc(-c3n[nH]c4c3CCC(C)(C)C4)[nH]c2c1` [Example 42]: the half-maximal inhibitory concentration (IC50) was 22 nM.
Next, `CN(C(=O)C(O)CO)c1ccc2cc(-c3n[nH]c4c3CCC(C)(C)C4)[nH]c2c1` (stereo not drawn) [Example 43]: 6 nM.
On to `CCOCC(=O)N(C)c1ccc2cc(-c3n[nH]c4c3CCC(C)(C)C4)[nH]c2c1` [Example 44], for which the IC50 was less than 3 nM.
In the case of `CN(C(=O)COc1ccccc1)c1ccc2cc(-c3n[nH]c4c3CCC(C)(C)C4)[nH]c2c1` [Example 45], the IC50 was less than 3 nM.
Next, `CC(O)C(=O)N(C)c1ccc2cc(-c3n[nH]c4c3CCC(C)(C)C4)[nH]c2c1` (stereo not drawn) [Example 46]: 5 nM.
Next, `COCC(OC)C(=O)N(C)c1ccc2cc(-c3n[nH]c4c3CCC(C)(C)C4)[nH]c2c1` (stereo not drawn) [Example 47]: 8 nM; `COC(CO)C(=O)N(C)c1ccc2cc(-c3n[nH]c4c3CCC(C)(C)C4)[nH]c2c1` (stereo not drawn) [Example 48]: 6 nM.
Regarding `CCC(O)C(=O)N(C)c1ccc2cc(-c3n[nH]c4c3CCC(C)(C)C4)[nH]c2c1` (stereo not drawn) [Example 49], the 50% inhibitory concentration (IC50) is 3 nM.
Next, `CCC(OC)C(=O)N(C)c1ccc2cc(-c3n[nH]c4c3CCC(C)(C)C4)[nH]c2c1` (stereo not drawn) [Example 50]: 4 nM.
Take `CN(C(=O)NCc1ccccc1)c1ccc2cc(-c3n[nH]c4c3CCC(C)(C)C4)[nH]c2c1` [Example 51]: the concentration for half-maximal inhibition (IC50) was 26 nM.
To `CN(C(=O)C1CCCO1)c1ccc2cc(-c3n[nH]c4c3CCC(C)(C)C4)[nH]c2c1` (stereo not drawn) [Example 52] belongs less than 3 nM; to `COCC(O)C(=O)N(C)c1ccc2cc(-c3n[nH]c4c3CCC(C)(C)C4)[nH]c2c1` (stereo not drawn) [Example 53], 8 nM; to `CN(C(N)=O)c1ccc2cc(-c3n[nH]c4c3CCC(C)(C)C4)[nH]c2c1` [Example 54], 18 nM.
As for `CCCOCC(=O)N(C)c1ccc2cc(-c3n[nH]c4c3CCC(C)(C)C4)[nH]c2c1` [Example 55], the IC50 is less than 3 nM.
Next, `CC(C)OCC(=O)N(C)c1ccc2cc(-c3n[nH]c4c3CCC(C)(C)C4)[nH]c2c1` [Example 56]: less than 3 nM; `CN(C(=O)C(=O)c1ccccc1)c1ccc2cc(-c3n[nH]c4c3CCC(C)(C)C4)[nH]c2c1` [Example 57]: 17 nM; `COCC(C)C(=O)N(C)c1ccc2cc(-c3n[nH]c4c3CCC(C)(C)C4)[nH]c2c1` (stereo not drawn) [Example 58]: 6 nM.
On to `Cc1cc(C(=O)N(C)c2ccc3cc(-c4n[nH]c5c4CCC(C)(C)C5)[nH]c3c2)no1` [Example 59], for which the IC50 was 7 nM.
Next, `CN(C(=O)C1CCOCC1)c1ccc2cc(-c3n[nH]c4c3CCC(C)(C)C4)[nH]c2c1` [Example 60]: 5 nM; `CC(CO)C(=O)N(C)c1ccc2cc(-c3n[nH]c4c3CCC(C)(C)C4)[nH]c2c1` (stereo not drawn) [Example 61]: 6 nM.
Take `COCCC(=O)N(C)c1ccc2cc(-c3n[nH]c4c3CCC(C)(C)C4)[nH]c2c1` [Example 62]: the IC50 was 4 nM.
For the molecule `CN(C(=O)CCO)c1ccc2cc(-c3n[nH]c4c3CCC(C)(C)C4)[nH]c2c1` [Example 63], the IC50 is 6 nM.
For the molecule `CC(=O)N1CCC(C(=O)N(C)c2ccc3cc(-c4n[nH]c5c4CCC(C)(C)C5)[nH]c3c2)CC1` [Example 64], the IC50 was 6 nM.
Next, `CN1CCC(C(=O)N(C)c2ccc3cc(-c4n[nH]c5c4CCC(C)(C)C5)[nH]c3c2)CC1` [Example 65]: 55 nM.
To `CN(C(=O)C1CCOC1)c1ccc2cc(-c3n[nH]c4c3CCC(C)(C)C4)[nH]c2c1` (stereo not drawn) [Example 66] belongs 3 nM; to `CC(C)C(O)C(=O)N(C)c1ccc2cc(-c3n[nH]c4c3CCC(C)(C)C4)[nH]c2c1` (stereo not drawn) [Example 67], 4 nM; to `CN(C(=O)C(O)c1ccccc1)c1ccc2cc(-c3n[nH]c4c3CCC(C)(C)C4)[nH]c2c1` (stereo not drawn) [Example 68], 7 nM.
Consider `CN(C(=O)CC(C)(C)O)c1ccc2cc(-c3n[nH]c4c3CCC(C)(C)C4)[nH]c2c1` [Example 69], for which the IC50 was 4 nM.
As to `CCC(=O)N(C)c1ccc2cc(-c3n[nH]c4c3CCC(C)(C)C4)[nH]c2c1` [Example 70], the IC50 is 3 nM.
Next, `CN(C(=O)CC1CCCO1)c1ccc2cc(-c3n[nH]c4c3CCC(C)(C)C4)[nH]c2c1` (stereo not drawn) [Example 71]: less than 3 nM; `CN(C(=O)CC1CCCCC1)c1ccc2cc(-c3n[nH]c4c3CCC(C)(C)C4)[nH]c2c1` [Example 72]: 9 nM; `CN(C(=O)COc1ccncc1)c1ccc2cc(-c3n[nH]c4c3CCC(C)(C)C4)[nH]c2c1` [Example 73]: less than 3 nM.
As for `COC1CCC(C(=O)N(C)c2ccc3cc(-c4n[nH]c5c4CCC(C)(C)C5)[nH]c3c2)CC1` (stereo not drawn) [Example 74], the IC50 was 4 nM.
As for `CN(C(=O)C(C)(C)COCc1ccccc1)c1ccc2cc(-c3n[nH]c4c3CCC(C)(C)C4)[nH]c2c1` [Example 75], the IC50 was 34 nM.
Next, `CN(C(=O)C(C)(C)CO)c1ccc2cc(-c3n[nH]c4c3CCC(C)(C)C4)[nH]c2c1` [Example 76]: 4 nM.
To `CN(C(=O)[C@H](O)C1CCCCC1)c1ccc2cc(-c3n[nH]c4c3CCC(C)(C)C4)[nH]c2c1` [Example 77] belongs 6 nM.
To `CN(C(=O)[C@@H](O)C1CCCCC1)c1ccc2cc(-c3n[nH]c4c3CCC(C)(C)C4)[nH]c2c1` [Example 78] belongs 7 nM.
Take `CN(C(=O)CN1CCCCC1)c1ccc2cc(-c3n[nH]c4c3CCC(C)(C)C4)[nH]c2c1` [Example 79]: the IC50 is 13 nM.
To `CN(C(=O)CN1CCOCC1)c1ccc2cc(-c3n[nH]c4c3CCC(C)(C)C4)[nH]c2c1` [Example 80] belongs 3 nM; to `COC1CCN(CC(=O)N(C)c2ccc3cc(-c4n[nH]c5c4CCC(C)(C)C5)[nH]c3c2)CC1` [Example 81], 8 nM; to `CO[C@H]1CC[C@H](C(=O)N(C)c2ccc3cc(-c4n[nH]c5c4CCC(C)(C)C5)[nH]c3c2)CC1` [Example 82], 7 nM.
Next, `CN(C(=O)CN1CCCC1=O)c1ccc2cc(-c3n[nH]c4c3CCC(C)(C)C4)[nH]c2c1` [Example 83]: less than 3 nM; `CN(c1ccc2cc(-c3n[nH]c4c3CCC(C)(C)C4)[nH]c2c1)C(=O)[C@H]1CC[C@@H](O)CC1` [Example 84]: less than 3 nM; `CO[C@H]1CC[C@@H](C(=O)N(C)c2ccc3cc(-c4n[nH]c5c4CCC(C)(C)C5)[nH]c3c2)CC1` [Example 85]: 4 nM.
Take `CN(C(=O)COc1cccnc1)c1ccc2cc(-c3n[nH]c4c3CCC(C)(C)C4)[nH]c2c1` [Example 86]: the IC50 is less than 3 nM.
Take `CN(C(=O)COC1CCOC1)c1ccc2cc(-c3n[nH]c4c3CCC(C)(C)C4)[nH]c2c1` (stereo not drawn) [Example 87]: the half-maximal inhibitory concentration (IC50) was less than 3 nM.
Next, `CN(C(=O)COC1CCOCC1)c1ccc2cc(-c3n[nH]c4c3CCC(C)(C)C4)[nH]c2c1` [Example 88]: 3 nM; `CN(C(=O)Cn1ccnc1)c1ccc2cc(-c3n[nH]c4c3CCC(C)(C)C4)[nH]c2c1` [Example 89]: less than 3 nM.

Values taken from US8299070B2, “Indole compounds and pharmaceutical use thereof” (Japan Tobacco Inc., priority 2009, dated 2012).
